Assay results published in ChEMBL document CHEMBL1147182, “Clubbed thiazoles by MAOS: a novel approach to cyclin-dependent kinase 5/p25 inhibitors as a potential treatment for Alzheimer's disease” (Bioorg Med Chem, 2007).
pIC50: −log10 of the molar value.

What was measured:
[1] = Cytotoxicity against VeroC1008 cells at 6.25 to 50 ug/ml by neutral red uptake assay; format: cell-based; conditions: chlorocebus sabaeus, vero
[2] = target: Cyclin-dependent kinase 5/CDK5 activator 1 (Homo sapiens, UniProt Q00535); assay: Inhibition of human cdk5/p25 by SPA; format: protein-complex assay
Sequence of Cyclin-dependent kinase 5/CDK5 activator 1 (Q00535 whole entry): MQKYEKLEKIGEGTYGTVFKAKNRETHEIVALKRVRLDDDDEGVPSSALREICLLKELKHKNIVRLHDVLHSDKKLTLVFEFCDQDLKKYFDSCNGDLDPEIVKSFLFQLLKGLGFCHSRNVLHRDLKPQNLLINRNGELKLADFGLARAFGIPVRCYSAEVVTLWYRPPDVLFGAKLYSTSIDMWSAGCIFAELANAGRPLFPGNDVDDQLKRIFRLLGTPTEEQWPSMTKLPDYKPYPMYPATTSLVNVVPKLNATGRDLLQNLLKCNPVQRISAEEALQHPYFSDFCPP
Sequence of Cyclin-dependent kinase 5/CDK5 activator 1 (Q15078 whole entry, further chain): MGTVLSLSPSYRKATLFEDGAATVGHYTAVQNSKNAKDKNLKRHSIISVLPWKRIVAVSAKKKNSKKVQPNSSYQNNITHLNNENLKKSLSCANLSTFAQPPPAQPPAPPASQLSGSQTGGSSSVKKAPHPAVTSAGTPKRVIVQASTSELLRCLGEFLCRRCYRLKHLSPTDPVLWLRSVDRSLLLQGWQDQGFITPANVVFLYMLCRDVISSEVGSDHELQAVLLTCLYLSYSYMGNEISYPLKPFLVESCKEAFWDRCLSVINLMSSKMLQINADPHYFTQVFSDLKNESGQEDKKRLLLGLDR

[3] = organism: Homo sapiens; assay: Selectivity for human cdk5/[…] over human cdk2/cyclin E
[4] = target: Cyclin-dependent kinase 2/cyclin E (Homo sapiens, UniProt P24941); assay: Inhibition of human cdk2/cyclin E by SPA; format: protein-complex assay

Row | SMILES | pIC50 [2] | Ratio IC50 [3] | pIC50 [4] | Activity [1]
1 | N#CCSc1nnc(Cc2csc(NC(=O)c3ccccc3)n2)n1NC(=O)c1ccc(Cl)cc1 | 7.19 | 21 | 5.87 | Non-toxic
2 | CC(=O)Nc1nc(Cc2nnc(SCC(=O)NN)n2NC(=O)c2ccc(Cl)cc2)cs1 | 7.14 | 8.6 | 6.20 | Non-toxic
3 | CC(=O)Nc1nc(Cc2nnc(S)n2N)cs1 | 7.32 | 1 | 7.30 | Non-toxic
4 | O=C(CSc1nnc(Cc2csc(NC(=O)CCl)n2)n1NC(=O)c1ccc(Cl)cc1)N/N=C/c1ccccc1 | 7.38 | 1.2 | 7.29 | Non-toxic
5 | CC(=O)Nc1nc(Cc2nnc(SCc3nnc(S)n3N)n2NC(C)=O)cs1 | 5.28 |  |  | Non-toxic
6 | COC(=O)CSc1nnc(Cc2csc(NC(=O)CCl)n2)n1NC(=O)c1ccccc1 | 6.17 |  |  | Non-toxic
7 | O=C(O)CCNc1nc(Cc2nnc(S)n2NC(=O)c2ccccc2)cs1 | 6.17 |  |  | Non-toxic
8 | NNC(=O)CSc1nnc(Cc2csc(NCCC(=O)O)n2)n1NC(=O)c1ccccc1 | 6.33 |  |  | Non-toxic
9 | CC(=O)Nc1nc(Cc2nnc(SCC(=O)N/N=C/c3ccccc3)n2NC(=O)c2ccc(Cl)cc2)cs1 | 7.52 | 17 | 6.29 | Non-toxic
10 | CC(=O)Nn1c(Cc2csc(NC(=O)c3ccccc3)n2)nnc1SCC(=O)NNC(=O)c1ccccc1 | 6.38 |  |  | Non-toxic
11 | N#CCSc1nnc(Cc2csc(NC(=O)c3ccccc3)n2)n1NC(=O)c1ccccc1 | 6.30 |  |  | Non-toxic
12 | NNC(=O)CSc1nnc(Cc2csc(NC(=O)c3ccccc3)n2)n1NC(=O)c1ccc(Cl)cc1 | 7.47 | 13.8 | 6.33 | Non-toxic
13 | CC(=O)NNC(=O)CSc1nnc(Cc2csc(NC(=O)CCl)n2)n1NC(C)=O | 6.45 |  |  | Non-toxic
14 | O=C(O)CCNc1nc(Cc2nnc(SCC(=O)N/N=C/c3ccccc3)n2NC(=O)c2ccccc2)cs1 | 6.28 |  |  | Non-toxic
15 | COC(=O)CSc1nnc(Cc2csc(NC(C)=O)n2)n1NC(=O)c1ccccc1 | 6.23 |  |  | Non-toxic
16 | O=C(CCl)NNC(=O)CSc1nnc(Cc2csc(NC(=O)c3ccccc3)n2)n1NC(=O)c1ccc(Cl)cc1 | 6.47 |  |  | Non-toxic
17 | CC(=O)Nn1c(Cc2csc(NCCC(=O)O)n2)nnc1SCC(=O)N/N=C/c1ccccc1 | 6.20 |  |  | Non-toxic
18 | COC(=O)CSc1nnc(Cc2csc(NC(=O)CCl)n2)n1NC(=O)c1ccc(Cl)cc1 | 6.36 |  |  | Non-toxic
19 | O=C(O)CCNc1nc(Cc2nnc(SCC(=O)NNC(=O)CCl)n2NC(=O)c2ccc(Cl)cc2)cs1 | 6.74 |  |  | Non-toxic
20 | CC(=O)Nn1c(Cc2csc(NC(=O)CCl)n2)nnc1SCC#N | 6.38 |  |  | Non-toxic
21 | CC(=O)Nc1nc(Cc2n[nH]c(=S)n2NC(C)=O)cs1 | 6.22 |  |  | Non-toxic
22 | CC(=O)Nn1c(Cc2csc(NCCC(=O)O)n2)nnc1SCC(=O)NNC(=O)c1ccccc1 | 6.32 |  |  | Non-toxic
23 | O=C(CCl)Nc1nc(Cc2nnc(SCSc3nnc(Cc4csc(NC(=O)CCl)n4)n3NC(=O)c3ccccc3)n2NC(=O)c2ccccc2)cs1 | 6.17 |  |  | Non-toxic
24 | Nn1c(S)nnc1CSc1nnc(Cc2csc(NC(=O)CCl)n2)n1NC(=O)c1ccccc1 | 5.16 |  |  | Non-toxic
25 | CC(=O)Nn1c(Cc2csc(NC(=O)c3ccccc3)n2)nnc1SCC#N | 6.24 |  |  | Non-toxic
26 | NNC(=O)CSc1nnc(Cc2csc(NC(=O)CCl)n2)n1NC(=O)c1ccc(Cl)cc1 | 7.36 | 20 | 6.05 | Non-toxic

The remaining compounds from weak to strong by pIC50 [2], led by results:

Row | pIC50 [2] | Ratio IC50 [3] | pIC50 [4] | SMILES | Activity [1]
27 | 5.20 |  |  | CC(=O)Nn1c(Cc2csc(NC(=O)c3ccccc3)n2)nnc1SCc1nnc(S)n1N | Non-toxic
28 | 6.03 |  |  | CC(=O)Nn1c(Cc2csc(NCCC(=O)O)n2)nnc1SCC(=O)NN | Non-toxic
29 | 6.16 |  |  | O=C(Nc1nc(Cc2nnc(SCSc3nnc(Cc4csc(NC(=O)c5ccccc5)n4)n3NC(=O)c3ccccc3)n2NC(=O)c2ccccc2)cs1)c1ccccc1 | Non-toxic
30 | 6.16 |  |  | CC(=O)Nn1c(S)nnc1Cc1csc(NC(=O)CCl)n1 | Non-toxic
31 | 6.19 |  |  | CC(=O)Nc1nc(Cc2nnc(SCSc3nnc(Cc4csc(NC(C)=O)n4)n3NC(=O)c3ccccc3)n2NC(=O)c2ccccc2)cs1 | Non-toxic
32 | 6.19 |  |  | CC(=O)NNC(=O)CSc1nnc(Cc2csc(NC(=O)c3ccccc3)n2)n1NC(C)=O | Non-toxic
33 | 6.19 |  |  | O=C(CCl)Nc1nc(Cc2nnc(S)n2NC(=O)c2ccc(Cl)cc2)cs1 | Non-toxic
34 | 6.19 |  |  | O=C(CSc1nnc(Cc2csc(NC(=O)CCl)n2)n1NC(=O)c1ccc(Cl)cc1)NNC(=O)c1ccccc1 | Non-toxic
35 | 6.19 |  |  | O=C(Nc1nc(Cc2nnc(SCSc3nnc(Cc4csc(NC(=O)c5ccccc5)n4)n3NC(=O)c3ccc(Cl)cc3)n2NC(=O)c2ccc(Cl)cc2)cs1)c1ccccc1 | Non-toxic
36 | 6.20 |  |  | Nn1c(Cc2csc(NC(=O)c3ccccc3)n2)n[nH]c1=S | Non-toxic
37 | 6.24 |  |  | CC(=O)Nc1nc(Cc2n[nH]c(=S)n2NC(=O)c2ccccc2)cs1 | Non-toxic
38 | 6.25 |  |  | N#CCSc1nnc(Cc2csc(NC(=O)CCl)n2)n1NC(=O)c1ccc(Cl)cc1 | Non-toxic
39 | 6.25 |  |  | COC(=O)CSc1nnc(Cc2csc(NCCC(=O)O)n2)n1NC(=O)c1ccc(Cl)cc1 | Non-toxic
40 | 6.27 |  |  | O=C(CCl)NNC(=O)CSc1nnc(Cc2csc(NC(=O)c3ccccc3)n2)n1NC(=O)c1ccccc1 | Non-toxic
41 | 6.27 |  |  | CC(=O)Nn1c(Cc2csc(NC(=O)CCl)n2)nnc1SCC(=O)N/N=C/c1ccccc1 | Non-toxic
42 | 6.28 |  |  | O=C(CCl)NNC(=O)CSc1nnc(Cc2csc(NC(=O)CCl)n2)n1NC(=O)c1ccccc1 | Non-toxic
43 | 6.34 |  |  | CC(=O)Nn1c(Cc2csc(NC(=O)CCl)n2)nnc1SCC(=O)NNC(=O)CCl | Non-toxic
44 | 6.40 |  |  | CC(=O)Nc1nc(Cc2nnc(SCC#N)n2NC(=O)c2ccccc2)cs1 | Non-toxic
45 | 6.41 |  |  | Nn1c(S)nnc1Cc1csc(NC(=O)CCl)n1 | Non-toxic
46 | 6.45 |  |  | CC(=O)Nn1c(Cc2csc(NC(=O)c3ccccc3)n2)nnc1SCC(=O)NNC(=O)CCl | Non-toxic
47 | 6.45 |  |  | CC(=O)NNC(=O)CSc1nnc(Cc2csc(NC(=O)CCl)n2)n1NC(=O)c1ccccc1 | Non-toxic
48 | 6.59 |  |  | CC(=O)Nc1nc(Cc2nnc(SCC(=O)NNC(=O)CCl)n2NC(=O)c2ccc(Cl)cc2)cs1 | Non-toxic
49 | 6.61 |  |  | O=C(CSc1nnc(Cc2csc(NC(=O)c3ccccc3)n2)n1NC(=O)c1ccc(Cl)cc1)N/N=C/c1ccccc1 | Non-toxic
50 | 6.62 |  |  | CC(=O)Nc1nc(Cc2nnc(SCC(=O)NN)n2NC(C)=O)cs1 | Non-toxic
51 | 6.73 |  |  | CC(=O)Nn1c(Cc2csc(NC(=O)c3ccccc3)n2)nnc1SCC(=O)NN | Non-toxic
52 | 7.19 | 99 | 5.20 | NNC(=O)CSc1nnc(Cc2csc(NCCC(=O)O)n2)n1NC(=O)c1ccc(Cl)cc1 | Non-toxic
53 | 7.21 | 18.3 | 5.94 | CC(=O)Nc1nc(Cc2nnc(SCC#N)n2NC(=O)c2ccc(Cl)cc2)cs1 | Non-toxic
